Where “and” joins values, the source holds several entries; their conditions need not be identical. Equal entries are not always repeated. Entries after “also recorded” stand apart in the source; their conditions may differ.
How the values were obtained:
Type in all cases: physicochemical
[1] = Dynamic vapor sorption/desorption isotherm (moisture balance); conditions: 25° C.
Description: Based on the dynamic vapor sorption/desorption data collected (FIG. 3), Crystalline Form A obtained is a non-hygroscopic material.
Data acquisition parameters for dynamic vapor sorption/desorption isotherm: […]

[2] = Solution calorimetry (SolCal), heats of solution in methanol; conditions: methanol, 25° C., hydrochloride
Procedure: For each test, two heats of solution are obtained—one calculated using a calibration preceding the sample analysis and one calculated using a calibration following the sample analysis. Clear solutions are observed after each test.
Solution calorimetry is performed using a Thermometric 2225 Precision Solution calorimeter, a semi-adiabatic calorimeter. Solution calorimeter System v.1.2 software is used. Samples are weighed into glass crushing ampoules and are sealed using silicone rubber plugs and hot wax. Experiments are carried out in 100 mL of methanol at 25° C. The measurement of the heats of solution of the samples is both preceded and followed by calibrations using an internal heater. The heats of solution are calculated using dynamic of calibration model.

[3] = Slurry in dichloromethane at ambient temperature, solvent mediated form conversion by XRPD; conditions: 16 days, no seeds, hydrochloride
Procedure: Slurry Experiments: Suspensions are prepared by adding enough solids to a given solvent so that excess solids are present. The mixture is then agitated in a sealed vial at ambient temperature or an elevated temperature. After a given period of time, the solids are isolated by vacuum filtration and analyzed.
558.9 mg of Crystalline Form A from Example 5 above is slurried in 5 mL dichloromethane. The preparation is stirred (300 RPM) in a sealed vial at ambient temperature for 16 days. White solids are isolated by vacuum filtration, rinsed with 1 mL of dichloromethane, and briefly dried under nitrogen. […] The XRPD pattern is collected with a PANalytical X'Pert PRO MPD diffractometer using an incident beam of Cu radiation produced using an Optix long, fine-focus source. An elliptically graded multilayer mirror is used to focus Cu Kα X-rays through the specimen and onto the detector. Prior to the analysis, a silicon specimen (NIST SRM 640e) is analyzed to verify the observed position of the Si 111 peak is consistent with the NIST-certified position. A specimen of the sample is sandwiched between 3-μm-thick films and analyzed in transmission geometry. A beam-stop, short antiscatter extension, and an antiscatter knife edge are used to minimize the background generated by air. Soller slits for the incident and diffracted beams are used to minimize broadening from axial divergence. […]

[4] = Storage stability of solid form, XRPD after storage
Procedure: Six scale-up attempts are conducted to prepare Crystalline Form C by cooling in isopropanol on approximately 50-150 mg scale (Table 11) and the solids tested by XRPD. At refrigerator temperature, precipitated solids yield Form B. Seeding with Form C after cooling in the refrigerator (no solids observed) and before placing in the freezer yield XRPD pattern of Form C with B peaks. Precipitation at freezer temperature results in solids with an XRPD pattern of Form C with A peaks. A solution placed in the freezer after cooling to room temperature with a lower concentration (7 mg/mL compared to 10 mg/mL) yields Form B. By crash cooling (ambient solution placed into dry ice/isopropanol), solids generated are a mixture of Forms B and A. The last attempt on an approximate 50-mg scale generates a mixture of Forms A and C.
An elliptically graded multilayer mirror is used to focus Cu Kα X-rays through the specimen and onto the detector. Prior to the analysis, a silicon specimen (NIST SRM 640e) is analyzed to verify the observed position of the Si 111 peak is consistent with the NIST-certified position. A specimen of the sample is sandwiched between 3-μm-thick films and analyzed in transmission geometry. A beam-stop, short antiscatter extension, and antiscatter knife edge are used to minimize the background generated by air. Soller slits for the incident and diffracted beams are used to minimize broadening from axial divergence. The diffraction pattern is collected using a scanning position-sensitive detector (X'Celerator) located 240 mm from the specimen and Data Collector software v. 2.2b. Data acquisition parameters are: Panalytical X-Pert Pro MPD PW3040 Pro, X-ray Tube: Cu (1.54059 Å), Voltage: 45 kV, Amperage: 40 mA, Scan Range: 1.00-39.99° 2θ, Step Size: 0.017° 2θ, Collection Time: 719 s, Scan Speed: 3.3°/min., Slit: DS: ½°, SS: null, Revolution Time: 1.0 s, Mode: Transmission.

Compound: Cl.c1ccc2cc([C@]34CNC[C@H]3C4)ccc2c1 [Crystalline Form A, (1R,5S)-1-(naphthalen-2-yl)-3-azabicyclo[3.1.0]hexane hydrochloride]
- weight loss upon initial equilibration at 5% RH [1]: 0.03%
- hygroscopicity based on dynamic vapor sorption/desorption data ([1]; 5% to 95% RH): non-hygroscopic
- weight gain from 5% to 95% RH ([1]; sorption): 0.10%
- Weight % chg ([1]; desorption, Samp RH 4.95%): −0.032 % chg
- Weight % chg ([1]; desorption, Samp RH 15.20%): −0.025 % chg
- Weight % chg ([1]; desorption, Samp RH 25.12%): −0.021 % chg
- Weight % chg ([1]; desorption, Samp RH 35.13%): −0.016 % chg
- Weight % chg ([1]; desorption, Samp RH 45.09%): −0.013 % chg
- Weight % chg ([1]; desorption, Samp RH 55.08%): −0.007 % chg
- Weight % chg ([1]; desorption, Samp RH 64.96%): 0.003 % chg
- Weight % chg ([1]; desorption, Samp RH 75.28%): 0.019 % chg
- Weight % chg ([1]; desorption, Samp RH 85.08%): 0.037 % chg
- Weight % chg ([1]; sorption, Samp RH 5.06%): −0.034 % chg
- Weight % chg ([1]; sorption, Samp RH 15.24%): −0.025 % chg
- Weight % chg ([1]; sorption, Samp RH 24.81%): −0.024 % chg
- Weight % chg ([1]; sorption, Samp RH 34.82%): −0.019 % chg
- Weight % chg ([1]; sorption, Samp RH 44.81%): −0.016 % chg
- Weight % chg ([1]; sorption, Samp RH 54.86%): −0.012 % chg
- Weight % chg ([1]; sorption, Samp RH 64.82%): −0.005 % chg
- Weight % chg ([1]; sorption, Samp RH 74.66%): 0.005 % chg
- Weight % chg ([1]; sorption, Samp RH 84.55%): 0.024 % chg
- Weight % chg ([1]; sorption, Samp RH 94.54%): 0.068 % chg
- Weight % chg ([1]; start, Samp RH 1.70%): 0.000 % chg
- average heat of solution ([2]; triplicate, endothermic): 48.618 J/g
- average heat of solution ([2]; average of three replicates): 48.618 J/g
- ΔH2 (heat of solution) ([2]; calculated using the calibration after breaking the sample vial, single replicates): 49.905 J/g and 50.168 J/g and 49.217 J/g
- ΔH1 (heat of solution) ([2]; calculated using the calibration before breaking the sample vial, single replicates): 48.077 J/g and 46.050 J/g and 48.293 J/g
- ΔHmean (heat of solution) ([2]; mean of the two calibrations, single replicates): 48.991 J/g and 48.109 J/g and 48.755 J/g
- solid form after slurry in dichloromethane [3]: Product is Crystalline Form A; also recorded: does not cause a solvent mediated form conversion to Crystalline Form B
- solid form by XRPD after long-term storage ([4]; long-term storage, product of Example 5): consistent with Crystalline Form A
- XRPD Result after 22 days of ambient storage ([4]; solids from IPA CC (70° C. to dry ice/IPA), freezer/2 d, after 22 days of ambient storage): storage: C +

Reference: patent US11299458B2, “Crystalline compounds” (OTSUKA AMERICA PHARMACEUTICAL, INC., priority 2015, dated 2022)
